Each structure is given as a SMILES string. In brackets after ≈: the same amount, converted by molar mass. Like-named read-outs stand apart in the source and are kept apart here.

Consider ten molecules from patent publication US20070049564A1 (Wyeth, priority 2005, published 2007).

One assay concerns Salmonella spp. GC 235. The assay can be described thus: MIC, broth microdilution. Particulars: Salmonella, SPP.GC235, Salmonella spp. GC 235.
The test system of a further assay is Salmonella spp. GC 566. Briefly: MIC, broth microdilution. Particulars: Salmonella, SPP.GC566, Salmonella spp. GC 566. Background: Dilution methods test growth across graded concentrations, often in twofold steps.
A further assay concerns S. cholerasius GC 1355. Briefly: MIC, broth microdilution. Particulars: S. cholerasius GC 1355.
For another assay, the system named is E. coli #311. Briefly: In vivo activity (oral, iv; ED50) against E. coli in mice. Particulars: Escherichia coli. The text has this:
. […] Smith and E. Coli #311 in mammals.
Results of the tests (MIC, oral and IV) are list in Table 7.

The mark [1] stands for this setting: single intravenous dose (SIV), read-out: ED50 E. coli #311 SIV.
The mark [2] stands for this setting: single oral dose (SOD), read-out: ED50 E. coli #311 SOD.

Description for S. cholerasius GC 1355: (§1) Antimicrobial susceptibility testing. The in vitro activities of the antibiotics are determined by the broth microdilution method as recommended by the National Committee for Clinical Laboratory Standards (NCCLS) (1). Mueller-Hinton II broth (MHBII)(BBL Cockeysville, Md.) is the medium employed in the testing procedures. Microtiter plates containing serial dilutions of each antimicrobial agent are inoculated with each organism to yield the appropriate density (10^5 CFU/ml) in a 100 μl final volume. The plates are incubated for 18-22 hours at 35° C. in ambient air.
(§2) Presented in Tables I-XIII are representative compounds of Formula I which were evaluated against a panel of 40 selected gram-positive and gram-negative bacteria strains by pre-incubation in water, mouse serum or human serum. Representative compounds were first incubated in mouse serum for an hour prior to the in vitro testing against a panel of selected gram-positive and gram-negative bacteria strains. All compounds were also pre-incubated in water for an hour prior to testing as control. Representative compounds of Formula I were incubated in human serum prior to MIC determination.
Description for Salmonella spp. GC 235: as §1
Representative compounds were first incubated in mouse serum for an hour prior to the in vitro testing against a panel of selected gram-positive and gram-negative bacteria strains. All compounds were also pre-incubated in water for an hour prior to testing as control.
Description for Salmonella spp. GC 566: as §1, §2

For `CCCN(CC(=O)Nc1cc(N(C)C)c2c(c1O)C(=O)C1=C(O)[C@]3(O)C(=O)C(C(N)=O)=C(O)[C@@H](N(C)C)[C@@H]3C[C@@H]1C2)C(=O)OCOC(=O)Cc1ccccc1` [Example 11, ({[(2-{[(5aR,6aS,7S,10aS)-9-(aminocarbonyl)-4,7-bis(dimethylamino)-1,8,10a,11′-tetrahydroxy-10,12-dioxo-5,5a,6,6a,7,10,10a,12-octahydrotetracen-2-yl]amino}-2-oxoethyl)(propyl)amino]carbonyl}oxy)methyl phenylacetate], the MIC was 0.5 mg/L (≈ 0.655 µM) against Salmonella spp. GC 235 (Mouse Serum pre-incubation); 64 mg/L (≈ 83.8 µM) with Salmonella spp. GC 235 (Water pre-incubation); 2 mg/L (≈ 2.62 µM) with Salmonella spp. GC 566 (Mouse Serum pre-incubation); over 64 mg/L with Salmonella spp. GC 566 (Water pre-incubation); 32 mg/L (≈ 41.9 µM) with S. cholerasius GC 1355 (Mouse Serum pre-incubation); over 64 mg/L in the assay with S. cholerasius GC 1355 (Water pre-incubation).

Take `CC(C)COC(=O)N(CC(=O)Nc1cc(N(C)C)c2c(c1O)C(=O)C1=C(O)[C@]3(O)C(=O)C(C(N)=O)=C(O)[C@@H](N(C)C)[C@@H]3C[C@@H]1C2)C(C)(C)C` [Example 59, isobutyl 2-{[(5aR,6aS,7S,10aS)-9-(aminocarbonyl)-4,7-bis(dimethylamino)-1,8,10a,11-tetrahydroxy-10,12-dioxo-5,5a,6,6a,7,10,10a,12-octahydrotetracen-2-yl]amino}-2-oxoethyl(tert-butyl)carbamate]: the results for the ED50 with E. coli #311 (setting [1]) and in the assay with E. coli #311 (setting [2]) were over 8 mg/kg and over 32 mg/kg, respectively.

For the molecule `CN(C)c1cc(NC(=O)CN(C(=O)OCOC(=O)c2ccc(C(C)(C)C)cc2)C(C)(C)C)c(O)c2c1C[C@H]1C[C@H]3[C@H](N(C)C)C(O)=C(C(N)=O)C(=O)[C@@]3(O)C(O)=C1C2=O` [Example 43, ({[(2-{[(5aR,6aS,7S,10aS)-9-(aminocarbonyl)-4,7-bis(dimethylamino)-1,8,10a,11-tetrahydroxy-10,12-dioxo-5,5a,6,6a,7,10,10a,12-octahydrotetracen-2-yl]amino}-2-oxoethyl)(tert-butyl)amino]carbonyl}oxy)methyl 4-tert-butylbenzoate], the ED50 was 3.6 mg/kg in the assay with E. coli #311 (setting [1]) and 60.4 mg/kg in the assay on E. coli #311 (setting [2]).

With `CCCCN(CC(=O)Nc1cc(N(C)C)c2c(c1O)C(=O)C1=C(O)[C@]3(O)C(=O)C(C(N)=O)=C(O)[C@@H](N(C)C)[C@@H]3C[C@@H]1C2)C(=O)OCOC(=O)Cc1ccccc1` [Example 12, ({[(2-{[(5aR,6aS,7S,10aS)-9-(aminocarbonyl)-4,7-bis(dimethylamino)-1,8,10a,11-tetrahydroxy-10,12-dioxo-5,5a,6,6a,7,10,10a,12-octahydrotetracen-2-yl]amino}-2-oxoethyl)(butyl)amino]carbonyl}oxy)methyl phenylacetate], the MIC is 1 mg/L (≈ 1.29 µM) in the assay on Salmonella spp. GC 235 (Mouse Serum pre-incubation); 64 mg/L (≈ 82.3 µM) in the assay on Salmonella spp. GC 235 (Water pre-incubation); 4 mg/L (≈ 5.14 µM) in the assay with Salmonella spp. GC 566 (Mouse Serum pre-incubation); over 64 mg/L with Salmonella spp. GC 566 (Water pre-incubation); 16 mg/L (≈ 20.6 µM) against S. cholerasius GC 1355 (Mouse Serum pre-incubation); over 64 mg/L in the assay on S. cholerasius GC 1355 (Water pre-incubation).

In the case of `CCCN(CC(=O)Nc1cc(N(C)C)c2c(c1O)C(=O)C1=C(O)[C@]3(O)C(=O)C(C(N)=O)=C(O)[C@@H](N(C)C)[C@@H]3C[C@@H]1C2)C(=O)OCC` [Example 15, ethyl 2-{[(5aR,6aS,7S,10aS)-9-(aminocarbonyl)-4,7-bis(dimethylamino)-1,8,10a,11-tetrahydroxy-10,12-dioxo-5,5a,6,6a,7,10,10a,12-octahydrotetracen-2-yl]amino}-2-oxoethyl(propyl)carbamate], the MIC in the assay on Salmonella spp. GC 235 (Mouse Serum pre-incubation), in the assay with Salmonella spp. GC 235 (Water pre-incubation), against Salmonella spp. GC 566 (Mouse Serum pre-incubation), in the assay on Salmonella spp. GC 566 (Water pre-incubation), against S. cholerasius GC 1355 (Mouse Serum pre-incubation) and in the assay on S. cholerasius GC 1355 (Water pre-incubation) was over 64 mg/L throughout.

As to `CCCN(CC(=O)Nc1cc(N(C)C)c2c(c1O)C(=O)C1=C(O)[C@]3(O)C(=O)C(C(N)=O)=C(O)[C@@H](N(C)C)[C@@H]3C[C@@H]1C2)C(=O)OCOC(=O)c1ccc(F)cc1` [Example 8, ({[(2-{[(5aR,6aS,7S,10aS)-9-(aminocarbonyl)-4,7-bis(dimethylamino)-1,8,10a,11-tetrahydroxy-10,12-dioxo-5,5a,6,6a,7,10,10a,12-octahydrotetracen-2-yl]amino}-2-oxoethyl)(propyl)amino]carbonyl}oxy)methyl 4-fluorobenzoate], the MIC was 4 mg/L (≈ 5.21 µM) in the assay on Salmonella spp. GC 235 (Mouse Serum pre-incubation); 64 mg/L (≈ 83.4 µM) in the assay with Salmonella spp. GC 235 (Water pre-incubation); 4 mg/L (≈ 5.21 µM) against Salmonella spp. GC 566 (Mouse Serum pre-incubation); over 64 mg/L in the assay on Salmonella spp. GC 566 (Water pre-incubation); 32 mg/L (≈ 41.7 µM) in the assay on S. cholerasius GC 1355 (Mouse Serum pre-incubation); over 64 mg/L in the assay with S. cholerasius GC 1355 (Water pre-incubation).

Consider `CCCN(CC(=O)Nc1cc(N(C)C)c2c(c1O)C(=O)C1=C(O)[C@]3(O)C(=O)C(C(N)=O)=C(O)[C@@H](N(C)C)[C@@H]3C[C@@H]1C2)C(=O)OCc1ccccc1` [Example 14, benzyl 2-{[(5aR,6aS,7S,10aS)-9-(aminocarbonyl)-4,7-bis(dimethylamino)-1,8,10a,11-tetrahydroxy-10,12-dioxo-5,5a,6,6a,7,10,10a,12-octahydrotetracen-2-yl]amino}-2-oxoethyl(propyl)carbamate], for which the MIC in the assay on Salmonella spp. GC 235 (Mouse Serum pre-incubation), with Salmonella spp. GC 235 (Water pre-incubation), against Salmonella spp. GC 566 (Mouse Serum pre-incubation), in the assay on Salmonella spp. GC 566 (Water pre-incubation), against S. cholerasius GC 1355 (Mouse Serum pre-incubation) and in the assay with S. cholerasius GC 1355 (Water pre-incubation) was over 64 mg/L each time.

As to `CN(C)c1cc(NC(=O)CN(C(=O)OCOC(=O)C2CCCC2)C(C)(C)C)c(O)c2c1C[C@H]1C[C@H]3[C@H](N(C)C)C(O)=C(C(N)=O)C(=O)[C@@]3(O)C(O)=C1C2=O` [Example 46, ({[(2-{[(5aR,6aS,7S,10aS)-9-(aminocarbonyl)-4,7-bis(dimethylamino)-1,8,10a,11-tetrahydroxy-10,12-dioxo-5,5a,6,6a,7,10,10a,12-octahydrotetracen-2-yl]amino}-2-oxoethyl)(tert-butyl)amino]carbonyl}oxy)methyl cyclopentanecarboxylate], the ED50 with E. coli #311 (setting [1]) worked out at 2.16 mg/kg; in the assay on E. coli #311 (setting [2]), 29.2 mg/kg.

On to `COC(=O)N(CC(=O)Nc1cc(N(C)C)c2c(c1O)C(=O)C1=C(O)[C@]3(O)C(=O)C(C(N)=O)=C(O)[C@@H](N(C)C)[C@@H]3C[C@@H]1C2)C(C)(C)C` [Example 60, methyl 2-{[(5aR,6aS,7S,10aS)-9-(aminocarbonyl)-4,7-bis(dimethylamino)-1,8,10a,11-tetrahydroxy-10,12-dioxo-5,5a,6,6a,7,10,10a,12-octahydrotetracen-2-yl]amino}-2-oxoethyl(tert-butyl)carbamate], for which the results for the ED50 with E. coli #311 (setting [1]) and with E. coli #311 (setting [2]) were over 8 mg/kg and over 32 mg/kg, respectively.

In the case of `CCCCOC(=O)N(CC(=O)Nc1cc(N(C)C)c2c(c1O)C(=O)C1=C(O)[C@]3(O)C(=O)C(C(N)=O)=C(O)[C@@H](N(C)C)[C@@H]3C[C@@H]1C2)C(C)(C)C` [Example 58, butyl 2-{[(5aR,6aS,7S,10aS)-9-(aminocarbonyl)-4,7-bis(dimethylamino)-1,8,10a,11-tetrahydroxy-10,12-dioxo-5,5a,6,6a,7,10,10a,12-octahydrotetracen-2-yl]amino}-2-oxoethyl(tert-butyl)carbamate], the ED50 with E. coli #311 (setting [1]) is over 8 mg/kg; in the assay on E. coli #311 (setting [2]), over 32 mg/kg.

The MIC is the lowest concentration that inhibits growth of the organism. For orientation: ED50 means the dose at which the effect has come halfway, by size or by number of responders.
